Measured values from PubChem BioAssay AID540258 (Broad Institute, 2011).
Activity calls are given as the source filed them.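 How the source made its calls: active means fitted curve reaching 40% activation at or below the top valid dose tested; inconclusive means flat curve at 30 to 70% activation, or poor fit; inactive means the rest.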

Test system: SK-MEL-5 TRPM1 promoter luciferase reporter, 24 h
Assay: activation of TRPM1 promoter luciferase in melanoma cells – SK-MEL-5 cells, cherry-pick samples, dose response (AID 540258);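 further: potency for activators that raise TRPM1 promoter luciferase signal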

Compound	AC40
CCC(=O)Nc1ccc(-c2ccc(N3CCC(C)CC3)nn2)cc1	4.63 µM
Nc1ccc(CSc2ccc(Cl)cc2)c(Cl)c1	1.98 µM
O=C(CNc1cccc(F)c1)N1CCc2ccccc2C1	4.43 µM
COc1ccc2c(c1OC)C(=O)N(c1ccc(C)cc1)C2	12.3 µM
COc1ccc(Br)c(C(=O)Nc2nc3ccccc3[nH]2)c1	4.94 µM
c1cncc(-c2nc3ccccc3s2)c1	3.8 µM
Cc1nc2ccccc2nc(=O)c1NNc1ccccc1	3.99 µM
O=C(Nc1ccc(Br)cc1F)c1ccc2nsnc2c1	1.31 µM
COc1ccc(OCc2cc(C(=O)NC(C)c3cnn(C)c3)no2)c(Cl)c1 (stereo not given)	12.3 µM
CC(C)c1ccc2nc(N)sc2c1	> 35 µM (inactive)
C/C(=N/OC(=O)CC(C)C)c1cc(-c2ccc(Cl)cc2)no1	2.65 µM
COc1ccc(NC(=O)Nc2ccc(Br)cn2)cc1	3.15 µM
Cc1[nH]n(-c2cccc(Cl)c2)c(=O)c1C=NCC(C)C	5.25 µM
O=C(Cc1cccs1)NCc1ccc(Cl)cc1Cl	5.59 µM
O=C(N/N=C/c1ccccn1)c1c[nH]c2ccccc12	6.49 µM
Cc1cccc(-n2ncc3c(N4CC(C)CC(C)C4)ncnc32)c1 (stereo not given)	0.749 µM
Clc1ccc(N/N=C/c2cccnc2)cc1	9.36 µM
O=C(O)c1ccc(N/N=C/c2cccc(C(F)(F)F)c2)cc1	0.488 µM
Cc1ccc(Nc2cc(C)nc(-c3ccccc3)n2)cc1	2.33 µM
Clc1ccc(-n2nnc(-c3cccnc3Cl)n2)cn1	3.3 µM
Cc1ccc(NC(=O)c2ccc3ccccc3n2)cc1S(=O)(=O)N(C)C	2.37 µM
c1ccc(-c2noc(COc3ccc4c(c3)OCO4)n2)cc1	2.25 µM
COc1ccc(-c2nn(-c3ccccc3)cc2C#N)cc1	3.24 µM
COc1ccc(NC(=S)c2ccccc2)cc1	3.97 µM
COc1ccc2cc(-c3nc4ccccc4n3C)c(=O)oc2c1	1.92 µM
CC1CCN(c2ccc3c(c2)S(=O)(=O)c2ccccc2C3=O)CC1	0.442 µM

Compound	AC40
COc1ccc(C(=O)c2ccc(CC#N)s2)cc1	7.07 µM
O=C(Nc1ccccc1)c1ccc(-c2ccccc2)s1	0.95 µM
COc1ccc(-c2ccc3oc(-c4ccsc4)cc(=O)c3c2)cn1	1.79 µM
COc1ccc(NC(=O)CCCn2c(=O)oc3ccccc32)cc1Cl	3.94 µM
COc1ccc(NC(=O)c2ccc3[nH]c(C)c(C)c3c2)cc1	22.4 µM
CSc1ccccc1OCc1cc(C(=O)N[C@H]2CCCCNC2=O)no1	2.22 µM
CC(=O)c1sc(NC(=O)c2ccc3c(c2)OCO3)nc1C	1.39 µM
c1ccc(C2=NN(c3ccccc3)CC2)cc1	1.69 µM
Cc1nn(C(=O)c2cccs2)c(N)c1-c1ccccc1	1.38 µM
O=C(Nc1ccc(-c2nc3cccnc3s2)cc1)c1ccc(Cl)nc1	2.11 µM
CCCn1nnc2sc3c(c2c1=O)CCC(C)C3 (stereo not given)	3.32 µM
CN(c1ccc(O)cc1)c1nc(O)c(C2=c3ccccc3=NC2=O)s1	8.06 µM
CC(C)(C)c1ccc(C(=O)NCc2ccccc2)cc1	8.05 µM
CC(C)(C)C(=O)OCc1nc(-c2ccc(F)cc2)cs1	11.3 µM
c1ccc2c(-c3csc(-c4ccncc4)n3)c[nH]c2c1	2.93 µM
CN1C(=O)C2C=CC1C1C(=O)N(c3ccccc3)C(=O)C21 (stereo not given)	1.89 µM
O=C1/C(=C/c2cccnc2)CCc2c1[nH]c1ccccc21	6.49 µM
O=C(Nc1ccc(Cl)c(Cl)c1)Nc1ccccc1O	0.982 µM
COc1ccc2cc(C(N)=O)c(=Nc3ccccc3)oc2c1	4.54 µM
CNC(=O)c1ccc(-c2cc3onc(-c4ccccc4)c3c(=O)n2C)cc1	6.96 µM
CCn1c(COc2ccccc2C)nc2ccccc21	9.77 µM
O=c1c(-c2ccc(O)cc2)coc2cc(O)cc(O)c12	4.48 µM
CCCc1cc(-c2ccc3c(c2)COc2c4ccccc4nn2-3)on1	0.145 µM
CCCc1cc(C(=O)Nc2cc(Cl)ccc2O)no1	2.99 µM
COC(=O)c1c(-c2ccc(S(C)(=O)=O)cc2)sc2ccc(OC)cc12	2.76 µM
N#C/C(C(=O)N1CCCCC1)=C1\Nc2ccccc2S1	5.02 µM

Compound	AC40
COc1ccccc1/C=C/C=N/n1c(-c2ccccn2)n[nH]c1=S	13.5 µM
CCc1ccc(NC(=O)C(=S)NC2CCCCC2)cc1	0.542 µM
C=CCn1cnc2c(nnn2-c2ccc(C)c(C)c2)c1=O	11.9 µM
CC(=O)Nc1c(-c2ccc3ccccc3c2)nc2ccccn12	9.16 µM
Cc1ccsc1CCNC(=O)C1CCC(=O)N(CCc2cccc(F)c2)C1 (stereo not given)	6.83 µM
Clc1ccc(-c2cnnc(-c3ccccn3)n2)cc1	1.71 µM
CC(Cc1ccccc1)/[N+]([O-])=C\c1ccc(C(F)(F)F)cc1 (stereo not given)	8.22 µM
NNC(=O)c1ccc2nc(-c3ccc(Br)cc3)cn2c1	11.3 µM
c1cnc2nc(-c3ccc4c(c3)OCO4)cn2c1	13.7 µM
Cc1cccc(OC(=O)c2sc3ncn(C)c(=O)c3c2C)c1	6.16 µM
Cc1ccc(NC(=O)Nc2ccc3c(c2)N(C)C(=O)CS3)nc1	6.65 µM
COC(=O)C(Cc1ccc(O)cc1)N1Cc2ccccc2C1=O (stereo not given)	5.9 µM
Cc1nn2c(-c3ccccc3)ccnc2c1-c1ccccc1	4.34 µM
Cc1cc(C)c(NN=c2c(=O)c3ccccc3c2=O)c(C)c1	0.531 µM
Cc1ccc(NC(=O)CCCc2ccccc2)nc1	5.72 µM
Fc1ccccc1COc1ccc(C(=S)N2CCCC2)cc1	4.34 µM
CC(C)c1ccc(NC(=O)Cn2ncc3ccccc32)cc1	6.86 µM
CC(C)CNC(=O)C1CCN(Cc2ccc(OCc3ccccc3)cc2)CC1	20.6 µM
CCCSc1ccc(C(=O)Nc2ccc(F)cc2F)cn1	27.2 µM
Oc1ccc(/C=N/Nc2cccc(Cl)n2)c(O)c1	0.584 µM
Nc1ccc(-c2nnc(-c3ccc(N)cc3)o2)cc1	2.45 µM
COC(=O)Cc1ccc(NC(=O)c2ccc(C)c(C)c2)cc1	1.49 µM
CCN(CC)c1ccc(Nc2nc(-c3cccnc3)cs2)cc1	2.64 µM
CCC(=O)c1ccc(OCc2ccccc2)c(OC)c1	2.57 µM
Cc1nn(-c2ccc(N3CCCCC3)nn2)c(C)c1CCC(=O)Nc1cccc(F)c1	3.23 µM
Cn1ccs/c1=N\C(=O)Nc1ccccc1	1.59 µM

Compound	AC40
COc1cccc(C(=O)Nc2ccc(NC(=O)C3CC3)cn2)c1	3.48 µM
CC(=O)NCCC1CCCCN1C(=O)c1cc(COc2cc(C)ccc2C)on1 (stereo not given)	3.2 µM
COc1ccc(C2Nc3ccccc3C(=O)N2c2ccc(C)cc2)cc1Cn1nnc2ccccc21 (stereo not given)	17.2 µM
Nc1ccc(Oc2cc(N)cc(Oc3ccccc3)c2)cc1	4.99 µM
CCS(=O)(=O)N1Cc2ccccc2CC1C(=O)NCc1cccc(OC)c1 (stereo not given)	> 35 µM (inactive)
COc1ccc(/C(C)=N/Nc2nncc3ccccc23)cc1	0.58 µM
COc1ccc(C(=O)Nc2cc3c4c(c2)CC(=O)N4CCC3)c(OC)c1	6.24 µM
Cc1nc(-c2noc(-c3ccccc3Cl)n2)c(C(F)(F)F)o1	11.9 µM
COc1cc(/C=N/O)ccc1OCc1ccccc1Cl	0.744 µM
COc1cccc2[nH]c(=O)c(-c3ccccc3)cc12	1.72 µM
COC(=O)C1CCc2c(ccc3c2CCCC3)C1=O (stereo not given)	2.03 µM
C=CCn1cccc(C(=O)Nc2ccc(Cl)cc2)c1=O	> 11 µM (inactive)
CC(C)(C)c1ccc(-c2noc(-c3ccno3)n2)cc1	0.472 µM
c1ccc(-n2ncc3c(NCc4cccs4)ncnc32)cc1	2.66 µM
O=C(Nc1ccc2c(c1)CCC2)c1c(F)cccc1Cl	1.84 µM
CN1C(=O)NC(=O)C(C)(C2=CCCCC2)C1=O (stereo not given)	> 35 µM (inactive)
Cc1cccnc1NC(=O)Nc1cccc(Cl)c1	2.56 µM
c1ccc(-n2nnc(-c3cccnc3)n2)cc1	8.4 µM
Cc1cccc(OCc2nc(-c3nonc3N)no2)c1C	3.81 µM
COc1ccc(/C=C2\SC(=O)N(CCNC(=O)C3CC4C=CC3C4)C2=O)cc1 (stereo not given)	1.39 µM
N#C/C(=N\Nc1ccccc1F)C(=N)N1CCCCC1	2.13 µM
COc1cccc(Nc2ccc(N3CCCCC3)cc2)c1OC	1.48 µM
Cn1cccc1C(=O)N/N=C/c1c(Cl)cccc1Cl	1.47 µM
Cc1cccc2nc(COc3ccc4ccccc4c3Br)cn12	1.27 µM
COc1ccc(/C=N/Nc2snc(SC)c2C#N)cc1OC	4.29 µM
CSc1ccc(-c2nnn(Cc3ccc(C)cc3)n2)cc1	5.08 µM

Compound	AC40
O=C(Nc1ccc(Cl)c(Cl)c1)OCc1cccnc1	7.44 µM
Cc1ccn(-c2cccc(-n3ccc(C)n3)n2)n1	0.834 µM
COc1ccc(/C=C/c2nc3ccccc3n2Cc2ccc(OC)c(OC)c2)cc1	1.93 µM
COc1ccc(Nc2nc(N)c3ccccc3n2)c(OC)c1	2.4 µM
COc1ccc2c(c1OC)C(=O)N1c3ccccc3COC21 (stereo not given)	0.955 µM
c1csc(-c2nc(N3CCCCC3)no2)c1	1.44 µM
CN1CCSc2ccc(C(=O)Nc3cc(F)ccc3F)cc21	0.465 µM
Cc1ccc(-n2nnc(-c3ccnc4ccccc34)n2)cc1	3.49 µM
C/C(=C\C(=O)c1cccnc1)Nc1ccc(C)c(C)c1	6.87 µM
O=c1c2c(nc3cc(-c4ccc(Br)cc4)[nH]n13)CCCC2	0.286 µM
COc1ccc(COc2ccc3ccc(=O)oc3c2)cc1	1.21 µM
CCCc1cc2c(=O)c(-c3ccccn3)coc2cc1OC	1.81 µM
Cc1ccc(NCC(=O)c2ccc(C)cc2)cc1	9.65 µM
C/C(=N\O)c1ccc(N2C(=O)C3CC=C(Cl)CC3C2=O)cc1 (stereo not given)	3.5 µM
O=C(Nc1ccc(O)cc1)c1c(O)c2c([nH]c1=O)CCCC2	0.664 µM
COc1cc(SC)ccc1C(=O)NCC1CCCCC1	14.4 µM
CCC(=O)N1CCc2nc(-c3ccccc3)sc2C1	6.73 µM
CCc1c(C(=O)Nc2ccc(C)c(C)c2)[nH]c(C)c1C(C)=O	5.17 µM
Cc1ccc(-c2cc(-c3ccc(C)cc3O)[nH]n2)cc1	0.342 µM
Cc1snc2sc(C(=O)c3ccc(Br)cc3)c(N)c12	1.48 µM
C=CCNC(=O)c1ccc2nc(Cc3ccc(OC)cc3)oc2c1	2.37 µM
C/C(=N\Nc1ccc(C(=O)O)cc1)c1ccc2c(c1)Nc1ccccc1S2	12.8 µM
COc1ccc(NC(=O)c2ccc3c(c2)OCO3)cc1Cl	0.642 µM
Nc1nc(CSc2ccccn2)nc(Nc2ccccc2)n1	1.31 µM
COc1ccccc1NC(=O)Nc1ccc(C(=O)N2CCCCC2)cc1	16.6 µM
Cc1ccc(C(=O)NCCc2ccc(F)cc2)s1	0.245 µM
